Results from ChEMBL document CHEMBL5729720, “Pyridine and pyrazine derivatives as preferential cannabinoid 2 agonists” (2023).

Target: Cannabinoid receptor 2 (Homo sapiens, UniProt P34972)
Assay: Radioligand Binding Assay: The affinity of the compounds of the invention for cannabinoid CB1 receptors was determined using recommended amounts of membrane preparations (PerkinElmer) of human embryonic kidney (HEK) cells expressing the human CNR1 or CNR2 receptors in conjunction with 1.5 or 2.6 nM [3H]-CP-55,940 (Perkin Elmer) as radioligand, respectively. Binding was performed in binding buffer (50 mM Tris, 5 mM MgCl2, 2.5 mM EDTA, and 0.5% (wt/vol) fatty acid free BSA, pH 7.4 for CB1 receptor and 50 mM Tris, 5 mM MgCl2, 2.5 mM EGTA, and 0.1% (wt/vol) fatty acid free BSA, pH 7.4 for CB2 receptor) in a total volume of 0.2 ml for 1 h at 30° C. shaking. The reaction was terminated by rapid filtration through microfiltration plates coated with 0.5% polyethylenimine (UniFilter GFB filter plate; Packard). Bound radioactivity was analyzed for Ki using nonlinear regression analysis (Activity Base, ID Business Solution, Limited), with the Kd values for [3H]CP55,940 determined from saturation experiments. The compounds of formula (I) show an excellent affinity for the CB2 receptor.

Chain of Cannabinoid receptor 2 (P34972 whole entry): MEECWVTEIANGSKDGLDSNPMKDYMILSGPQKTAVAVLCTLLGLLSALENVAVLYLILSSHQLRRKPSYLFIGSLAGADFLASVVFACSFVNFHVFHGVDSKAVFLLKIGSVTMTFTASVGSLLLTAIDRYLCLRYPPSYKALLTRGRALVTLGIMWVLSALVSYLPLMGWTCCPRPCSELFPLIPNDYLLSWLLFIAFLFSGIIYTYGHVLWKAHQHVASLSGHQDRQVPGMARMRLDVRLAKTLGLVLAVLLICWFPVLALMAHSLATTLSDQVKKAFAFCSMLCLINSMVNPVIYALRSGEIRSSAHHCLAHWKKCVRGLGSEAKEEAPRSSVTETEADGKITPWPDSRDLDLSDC

| Ki [nM] | Compound |
| --- | --- |
| 1.8 | CCOC(=O)C(CC)(CC)NC(=O)c1ccc(N2CC(OC)C2)c(OC[C@H]2C[C@@H]2COCF)n1 (mixture of isomers) |
| 3.7 | CCOC(=O)C(CC)(CC)NC(=O)c1ccc(N2CC(OC)C2)c(OC[C@H]2C[C@@H]2COCCF)n1 (mixture of isomers) |

| Compound | Ki [nM] |
| --- | --- |
| CCC(CC)(NC(=O)c1ccc(N2CC(OC)C2)c(OC[C@H]2C[C@@H]2CO)n1)C(=O)OCCCCF | 1.8 |
